According to patent EP4640686A1, “DEGRADER FOR DEGRADING BRD PROTEIN AND PHARMACEUTICAL COMPOSITION CONTAINING SAME” (Innocure Therapeutics, Inc., priority 2022, dated 2024):
Like-named read-outs stand apart in the source and are kept apart here.

Assays:
Format in all cases: cell-based
[1] = tested on: MDA-MB-231; test: Cancer cell antiproliferative activity / cell viability in MDA-MB-231 cells (72 h treatment); conditions: Homo sapiens, read-out: BRD4 (IC50)
Procedure: (§1) The human breast cancer cell line [MDA-MB-231] was cultured in RPMI medium with the addition of 10% fetal bovine serum, penicillin [100U/ml], and streptomycin [[…]]. The synthesized compounds were prepared with a 10 mM or 50 mM raw material solution dissolved in DMSO [dimethyl sulfoxide], and were diluted sequentially and treated. [RPMI2650] and [SNU2972] were cultivated under specific conditions.
(§2) To observe cell growth inhibition, cells were dispensed in a concentration of 5,000 cells/well in a 96-well plate, and samples prepared at various concentrations were treated for 72 hours. The IC50 value (the concentration of the compound achieving 50% cytostaticism) is the average value of the results of three independent measurements.

[2] = tested on: RPMI2650; test: Cancer cell antiproliferative activity / cell viability in RPMI2650 cells (72 h treatment)
Procedure: as §1, §2

[3] = tested on: SNU2972; test: Cancer cell antiproliferative activity / cell viability in SNU2972 cells (72 h treatment); conditions: read-out: BRD4 (IC50)
Procedure: as §1, §2

[4] = molecular target: T1, BRD4-NUT (Homo sapiens, UniProt O60885+Q86Y26); test: BRD4-NUT protein degradation by western blotting in RPMI2650 cells (24 h treatment)
T1 construct: endogenous in cells; host or cells: RPMI2650
Procedure: (§3) The synthesized compounds were prepared with a 10 mM or 50 mM raw material solution dissolved in DMSO [dimethyl sulfoxide], and were diluted sequentially and treated. [RPMI2650] and [SNU2972] were cultivated under specific conditions.
(§4) To evaluate the resolution of PROTAC for BRD4 expressed in cells, cells were dispensed in a concentration of 5 X 10^5 cells/well in a 6-well plate, and the sample was treated for 24 hours. […] Protein expression was normalized based on the expression value of β or GAPDH, and protein expression in each sample was measured as % based on 100% of samples treated with 0.1% DMSO vehicle. Protein expression was quantified using Image J program. Change in protein expression volume by compound treatment (DC50: concentration of compounds where 50% protein expression inhibition is achieved) was calculated using the GraphicPad Prism 8.0 software.

[5] = molecular target: T2, BRD4 (Homo sapiens, UniProt O60885); test: BRD4 protein degradation by western blotting in RPMI2650 cells (24 h treatment); design: To evaluate the resolution of PROTAC for BRD4 expressed in cells; endogenous in cells; host or cells: RPMI2650
Procedure: as §3, §4

[6] = molecular target: T2, BRD4; test: BRD4 protein degradation by western blotting in MDA-MB-231 cells (24 h treatment); design: To evaluate the resolution of PROTAC for BRD4 expressed in cells; endogenous in cells; host or cells: MDA-MB-231
[7] = Homo sapiens, RPMI-2650, RPMI2650, read-out: BRD4 (IC50)
[8] = read-out: BRD4-NUT (DC50), RPMI2650
[9] = read-out: BR04 (DC50), RPMI2650
[10] = RPM12650, read-out: Cell Viatility (IC50)
[11] = RPM12650, read-out: BRD4-NUT (DC50)
[12] = RPM12650, read-out: BRD4 (DC50)
[13] = Homo sapiens, RPMI-2650, 72 h, RPM12650, read-out: Cell Viatility (IC50)
[14] = Homo sapiens, RPMI-2650, RPM12650, read-out: Cell Viatility (IC50)

| SMILES | IC50 [1] [nM] | IC50 [2, 7] [nM] | DC50 [4, 8] [nM] | DC50 [5, 9] [nM] | DC50 [6] [nM] | DC50 [4, 11] [nM] | DC50 [5, 12] [nM] | further results |
| --- | --- | --- | --- | --- | --- | --- | --- | --- |
| Cc1sc2c(c1C)C(c1ccc(Cl)cc1)=N[C@@H](CC(=O)N1CCC(CN3CCN(c4cc5c(C)nn(C6CCC(=O)NC6=O)c(=O)c5cc4F)CC3)CC1)c1nnc(C)n1-2 (stereo partly drawn) [ICT-0000953, 3-(6-(4-((1-(2-((S)-4-(4-chlorophenyl)-2,3,9-trimethyl-6H-thieno[3,2-f][1,2,4]triazolo[4,3-a][1,4]diazepine-6-il)acetyl)piperidine-4-il)methyl)piperazine-1-il)-7-fluoro-4-methyl-1-oxopthalazine-2(1H)-yl)piperidine-2,6-dione] | < 100 | < 100 | < 100 | < 100 | < 100 | – | – | IC50 [3]: < 100 nM |
| Cc1sc2c(c1C)C(c1ccc(Cl)cc1)=N[C@@H](CC(=O)N1CC(N3CCN(c4ccc5c(=O)n(C6CCC(=O)NC6=O)nc(C)c5c4)CC3)C1)c1nnc(C)n1-2 (stereo partly drawn) [ICT-0000974, 3-(6-(4-(1-(2-((S)-4-(4-chlorophenyl)-2,3,9-trimethyl-6H-thieno[3,2-f][1,2,4]triazolo[4,3-a][1,4]diazepine-6-yl)acetyl)azetidine-3-il)piperazine-1-yl)-4-methyl-1-oxopthalazine-2(1H)-yl)piperidine-2,6-dione] | < 100 | < 100 | < 100 | < 100 | < 100 | – | – | IC50 [3]: < 100 nM |
| Cc1sc2c(c1C)C(c1ccc(Cl)cc1)=N[C@@H](CC(=O)Nc1ccc(N3CCN(c4ccc5c(=O)n(C6CCC(=O)NC6=O)nc(C)c5c4)CC3)cc1)c1nnc(C)n1-2 (stereo partly drawn) [ICT-0001410, 2-((S)-4-(4-chlorophenyl)-2,3,9-trimethyl-6H-thieno[3,2-f][1,2,4]triazolo[4,3-a][1,4]diazepine-6-yl)-N-(4-(4-(2-(2,6-dioxopiperidin-3-yl)-4-methyl-1-oxo-1,2-dihydroptalazine-6-yl)piperazine-1-yl)phenyl)acetamide] | < 100 | < 100 | < 100 | < 100 | < 100 | – | – | – |
| CC[C@@H]1c2nnc(C)n2-c2cnc(Nc3ccc(C(=O)N4CCO[C@@H](CN5CCN(c6ccc7c(=O)n(C8CCC(=O)NC8=O)nc(C)c7c6)CC5)C4)cc3OC)nc2N1CC1CCCCC1 (stereo partly drawn) [ICT-0001548, 3-(6-(4-(((S)-4-(4-(((R)-5-(cyclohexylmethyl)-4-ethyl-1-methyl-4,5-dihydro-[1,2,4]triazolo[4,3-f]pteridine-7-yl)amino)3-methoxybenzoyl)morpholine-2-il)methyl)piperazine-1-yl)4-methyl-1-oxopthalazine-2(1H)-yl)piperidine-2,6-dione] | – | – | – | – | – | < 100 | < 100 | IC50 [2, 10]: > 1000 nM |
| CC[C@@H]1c2nnc(C)n2-c2cnc(Nc3ccc(C(=O)NC4CCN(Cc5ccc(NC6CCC(=O)NC6=O)cc5)CC4)cc3OC)nc2N1CC1CCCCC1 (stereo partly drawn) [ICT-0001569, 4-{[(4R)-5-(cyclohexylmethyl)-4-ethyl-1-methyl-4H,5H-[1,2,4]triazolo[4,3-f]pteridine-7-yl]amino}-N-[1-({4-[(2,6-dioxopiperidin-3-yl)amino]phenyl}methyl)piperidine-4-yl]-3-methoxybenzamide] | – | – | – | – | – | > 1000 | > 1000 | IC50 [2, 13]: > 1000 nM |
| CC[C@@H]1c2nnc(C)n2-c2cnc(Nc3ccc(C(=O)N4CC(CN5CCN(c6ccc7c(=O)n(C8CCC(=O)NC8=O)nc(C)c7c6)CC5)C4)cc3OC)nc2N1CC1CCCCC1 (stereo partly drawn) [ICT-0001557, 3-(6-(4-((1-(4-(((R)-5-(cyclohexylmethyl)-4-ethyl-1-methyl-4,5-dihydro-[1,2,4]triazolo[4,3-f]pteridine-7-yl)amino)3-methoxybenzoyl)azetidine-3-yl)methyl)piperazine-1-yl)4-methyl-1-oxopthalazine-2(1H)-yl)piperidine-2,6-dione] | – | – | – | – | – | > 1000 | < 100 | IC50 [2, 14]: > 1000 nM |
| CC[C@@H]1c2nnc(C)n2-c2cnc(Nc3ccc(C(=O)N4CCN(CCNc5cccc6c(C)nn(C7CCC(=O)NC7=O)c(=O)c56)CC4)cc3OC)nc2N1CC1CCCCC1 (stereo partly drawn) [ICT-0001583, 3-(8-((2-(4-(4-(((R)-5-(cyclohexylmethyl)-4-ethyl-1-methyl-4,5-dihydro-[1,2,4]triazolo[4,3-f]pteridine-7-yl)amino)3-methoxybenzoyl)piperazine-1-yl)ethyl)amino)4-methyl-1-oxopthalazine-2(1H)-yl)piperidine-2,6-dione] | – | – | – | – | – | < 100 | < 100 | IC50 [2, 14]: > 1000 nM |
| CC[C@@H]1c2nnc(C)n2-c2cnc(Nc3ccc(C(=O)N4CCN(c5cccc6c(C)nn(C7CCC(=O)NC7=O)c(=O)c56)CC4)cc3OC)nc2N1CC1CCCCC1 (stereo partly drawn) [ICT-0001584, 3-(8-(4-(4-(((R)-5-(cyclohexylmethyl)-4-ethyl-1-methyl-4,5-dihydro-[1,2,4]triazolo[4,3-f]pteridine-7-yl)amino)-3-methoxybenzoyl)piperazine-1-yl)-4-methyl-1-oxopthalazine-2(1H)-yl)piperidine-2,6-dione] | – | – | – | – | – | < 100 | < 100 | IC50 [2, 14]: < 100 nM |
| Cc1sc2c(c1C)C(c1ccc(Cl)cc1)=N[C@@H](CC(=O)Nc1ccc(CN3CCN(c4ccc5c(=O)n(C6CCC(=O)NC6=O)nc(C)c5c4)CC3)cc1)c1nnc(C)n1-2 (stereo partly drawn) [ICT-0001423, 2-[(9S)-7-(4-chlorophenyl)-4,5,13-trimethyl-3-thia-1,8,11,12-tetraazatricyclo[8.3.0.0^2,^6]trideca-2(6),4,7,10,12-pentaene-9-yl]-N-[4-({4-[2-(2,6-dioxopiperidin-3-yl)-4-methyl-1-oxo-1,2-dihydroptalazine-6-yl]piperazine-1-yl}methyl)phenyl]acetamide] | < 100 | < 100 | < 100 | < 100 | < 100 | – | – | – |
| CC[C@H]1c2nnc(C)n2-c2cnc(Nc3ccc(C(=O)NC4CCN(CCC5CCN(c6ccc(NC7CCC(=O)NC7=O)cc6F)CC5)CC4)cc3OC)nc2N1CC1CCCCC1 (stereo partly drawn) [ICT-0001562, 4-{[(4S)-5-(cyclohexylmethyl)-4-ethyl-1-methyl-4H,5H-[1,2,4]triazolo[4,3-f]pteridine-7-yl]amino}-N-{1-[2-(1-{4-[(2,6-dioxopiperidin-3-yl)amino]-2-fluorophenyl}piperidine-4-yl)ethyl]piperidine-4-yl}-3-methoxybenzamide] | – | – | – | – | – | > 1000 | > 1000 | IC50 [2, 10]: 100 to 1000 nM |
| CC[C@H]1c2nnc(C)n2-c2cnc(Nc3ccc(C(=O)NC4CCN(CCC5CCN(c6ccc(NC7CCC(=O)NC7=O)cc6F)CC5)CC4)cc3OC)nc2N1CC1CCCCC1 (stereo partly drawn) [ICT-0001564, 4-{[(4S)-5-(cyclohexylmethyl)-4-ethyl-1-methyl-4H,5H-[1,2,4]triazolo[4,3-f]pteridine-7-yl]amino}-N-{1-[2-(1-{4-[(2,6-dioxopiperidin-3-yl)amino]-2-fluorophenyl}piperidine-4-yl)ethyl]piperidine-4-yl}-3-methoxybenzamide] | – | – | – | – | – | > 1000 | < 100 | IC50 [2, 10]: > 1000 nM |
| CC[C@@H]1c2nnc(C)n2-c2cnc(Nc3ccc(C(=O)NC4CCN(CCOCCOc5ccc(NC6CCC(=O)NC6=O)cc5F)CC4)cc3OC)nc2N1CC1CCCCC1 (stereo partly drawn) [ICT-0001570, 4-{[(4R)-5-(cyclohexylmethyl)-4-ethyl-1-methyl-4H,5H-[1,2,4]triazolo[4,3-f]pteridine-7-yl]amino}-N-{1-[2-(2-{4-[(2,6-dioxopiperidin-3-yl)amino]-2-fluorophenoxy}ethoxy)ethyl]piperidine-4-yl}-3-methoxybenzamide] | – | – | – | – | – | > 1000 | > 1000 | IC50 [2, 13]: > 1000 nM |
